The record followed here is patent US20260098037A1, “COMPOUND CONTAINING MULTI-FUSED RING STRUCTURE” (Chia Tai Tianqing Pharmaceutical Group Co., Ltd., priority 2023, published 2026).

For data set [1], the system named is GLP-1R humanized C57BL/6J mice. The data set can be described thus: Evaluation of hypoglycemic effect in mice (intraperitoneal glucose challenge). The data set is classed as in vivo. Particulars: intragastric dose 1 mg/kg, glucose 2 g/kg ip 5 h after administration. The text has this:
GLP-1R humanized C57BL/6J mice of 20-22 g were used in this study after 3 days of acclimatization. All the animals were deprived of food but not water until the end of study. Blood samples were collected from the tail tip of the mice.
The test animals were deprived of food but not water overnight before the study. The next day, blood was collected from all the animals for blood glucose testing, and the animals were randomized into a normal control group, a positive control group, and test compound groups by blood glucose and body weight, with 6 animals in each group. The groups were then given intragastric doses, and 5 h after the administration, an intraperitoneal injection of glucose solution (2 g/kg) was given. The blood glucose concentration was measured at 0.25 h, 0.5 h, 1 h, 2 h, and 3 h after the glucose injection. The blood glucose was recorded throughout the study, and the area under the blood glucose-time curve AUC0-180 min Glu was calculated.

Data set [2] can be described thus: In vitro stability assay in liver microsome (HLM). Particulars: liver microsome 0.5 mg/mL, NADPH+MgCl2, PBS pH 7.4, 1 h. The data set is classed as in vitro ADME, human. On the procedure: (§1) Liver microsome incubation samples were prepared by mixing a PBS buffer (pH 7.4), a liver microsome solution (0.5 mg/mL), a test compound, and an NADPH+MgCl2 solution, and incubated at […] and 300 rpm for 1 h. Zero-hour samples were prepared by mixing a PBS buffer (pH 7.4), a liver microsome solution (0.5 mg/mL), and a test compound. An acetonitrile solution containing an internal standard was added to the samples, and supernatants were prepared by protein precipitation, diluted, and then assayed by LC/MS/MS.

Data set [3] in a line: In vitro stability assay in liver microsome (MLM). The following applies: liver microsome 0.5 mg/mL, NADPH+MgCl2, PBS pH 7.4, 1 h. The data set is classed as in vitro ADME, mouse. On the procedure:
as §1
(Liver microsomes are a subcellular fraction often used to study metabolism.)

In a further data set the target is GLP1R (Homo sapiens, UniProt P43220). Kind of data set: In vitro cellular cAMP expression activity assay (CRE-luciferase reporter). Type of data set: cell-based. The following applies: HEK293/CRE-Luc/GLP1R cells, 6 h incubation, luciferase luminescence; read-out: HEK293/CRE-Luc/GLP-1R EC50. As to the method:
HEK293/CRE-Luc/GLP1R cells (manufacturer: GenScript Biotech Corporation) in a good growth state were taken, washed with PBS, and digested with pancreatin. The digestion was terminated with a complete medium. The cells were collected into a centrifuge tube, adjusted to a cell density of 4×10^5 cells/mL using a DMEM+2% FBS medium, seeded in a 96-well plate (100 μL/well), and incubated at 37° C. for 1 h. After 1 h, the compounds were added using a nanoliter pipettor such that the final concentrations of the compounds were 10 nM-0.0006 nM. The compounds were added in duplicate, and a control was set. After the cells were incubated in a cell incubator for another 6 h, a detection reagent Luciferase (manufacturer: Vazyme Biotech, 50 μL/well) was added. The plate was left to stand at room temperature for 3 min to fully lyse the cells, and the luminescence was detected on a PerkinElmer Envision microplate reader. A dose-response curve was fitted by four-parameter analysis, and the EC50 was calculated.

A short description of data set [4]: In vivo pharmacokinetic evaluation in mice. Particulars: mouse, plasma, ICR mice; for bioavailability: ig 3 mg/kg vs iv 0.5 mg/kg, read-out: Absolute bioavailability F; for MRT last: read-out: MRT(0-24); for half-life: read-out: t½ (converted); for AUC(0-t): read-out: AUC(0-24). As to the method: ICR mice of 18-22 g were randomized into 4 groups of 9 mice after 3-5 days of acclimatization. […]
The test animals (ICR mice) were fasted from 12 h pre-dose to 4 h post-dose, and given free access to water throughout the study.
Orbital blood samples of about 0.1 mL were collected at 15 min, 30 min, 1 h, 2 h, 3 h, 4 h, 6 h, 8 h, 10 h, and 24 h post-dose for the intragastric administration, and at 5 min, 10 min, 30 min, 1 h, 2 h, 4 h, 6 h, 8 h, 10 h, and 24 h post-dose for the intravenous administration. The blood sampling was performed at 3-4 time points for each mouse, 3 mice per time point. The collected whole blood was transferred into EDTA-K2-containing centrifuge tubes and stored at 4° C., and, within 1 h, centrifuged at 4° C. at 4000 rpm for 10 min to separate the plasma. All the plasma samples were immediately stored after collection at −20° C. for testing.
30 μL of the plasma sample to be tested and a standard curve sample were pipetted and added with 300 μL of an acetonitrile solution containing an internal standard (20 ng/mL of diazepam). The mixture was shaken to mix well for 5 min, and centrifuged at 13,000 rpm for 10 min. 80 μL of the supernatant was taken and diluted with 80 μL of ultrapure water. After a thorough mixing, 2 μL of the resulting sample was taken for liquid chromatography-mass spectrometry, and the chromatogram was recorded.

Where two headings read alike, the source gives them in different places.

Sequence of GLP1R (P43220 24-463): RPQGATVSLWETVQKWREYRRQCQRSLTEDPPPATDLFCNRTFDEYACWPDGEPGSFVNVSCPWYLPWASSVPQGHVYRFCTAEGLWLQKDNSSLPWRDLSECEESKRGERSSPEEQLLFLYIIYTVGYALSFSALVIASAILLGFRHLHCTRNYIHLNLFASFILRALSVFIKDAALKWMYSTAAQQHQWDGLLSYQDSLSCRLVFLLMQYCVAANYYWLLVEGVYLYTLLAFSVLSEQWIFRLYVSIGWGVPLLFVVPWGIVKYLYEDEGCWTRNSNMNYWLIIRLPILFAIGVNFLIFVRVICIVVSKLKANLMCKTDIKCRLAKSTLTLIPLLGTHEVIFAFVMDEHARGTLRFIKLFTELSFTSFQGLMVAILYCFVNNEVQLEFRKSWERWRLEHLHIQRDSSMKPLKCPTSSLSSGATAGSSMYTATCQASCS

Consider `Cc1cc(-c2nn3c(c2-n2ccn(-c4ccc5c(c4)N(C)C(=O)C54CC4)c2=O)[C@H](C)N(C(=O)c2cc4cc([C@H]5CCOC(C)(C)C5)ccc4n2[C@@]2(c4noc(=O)[nH]4)C[C@@H]2C)CC3)cc(C)c1F` [Compound 27-D], for which, in data set [1], the “AUC0-180 min Glu reduction (%)” value amounted to 75%. Further, the “HLM Remaining (T = 60 min)” value in data set [2] is 86.20%. In data set [3], the “MLM Remaining (T = 60 min)” value is given as 87.54%. In addition, on GLP1R, the EC50 was below 0.5 nM.

Broadly, the bioavailability is the share of a dose that reaches the circulation, judged against a reference dose that is usually intravenous. A word on the AUC(0-inf): it is total exposure, with the tail of the curve extrapolated. For the compound `Cc1cc(-n2nc3c(c2-n2ccn(-c4ccc5c(c4F)N(C)C(=O)C54CC4)c2=O)[C@H](C)N(C(=O)c2cc4cc([C@H]5CCOC(C)(C)C5)ccc4n2[C@@]2(c4noc(=O)[nH]4)C[C@@H]2C)CC3)cc(C)c1F` [Compound 14], the “AUC0-180 min Glu reduction (%)” value in data set [1] came to 79%. Besides, the “HLM Remaining (T = 60 min)” value in data set [2] is 89.53%. For the same compound, the “MLM Remaining (T = 60 min)” value in data set [3] is reported as 90.40%. Further, at GLP1R, the EC50 is below 0.5 nM. The bioavailability in data set [4] (po) amounted to 37.8%. In data set [4] (po, ig, dose 3 mg/kg), the MRT last came out at 10.1 h, the half-life is 5.54 h, the total exposure AUC(0-inf) was 4910 ng·h/mL and the AUC(0-t) amounted to 4560 ng·h/mL. For the same compound, in data set [4] (iv, dose 0.5 mg/kg), the MRT last was determined as 6.78 h, the half-life is 5.77 h, the AUC(0-inf) came to 2170 ng·h/mL and the AUC(0-t) came out at 2060 ng·h/mL.

Turning to `C[C@H]1c2c(nn(-c3ccc(F)c(C4CC4)c3)c2-n2ccn(-c3ccc4c(c3)N(C)C(=O)C43CC3)c2=O)CCN1C(=O)c1cc2cc([C@H]3CCOC(C)(C)C3)ccc2n1[C@@]1(c2noc(=O)[nH]2)C[C@@H]1C` [Compound 18], the “HLM Remaining (T = 60 min)” value in data set [2] is given as 89.14%. Moreover, in data set [3], the “MLM Remaining (T = 60 min)” value is reported as 91.41%. On GLP1R, the EC50 is below 0.5 nM. Besides, in data set [4] (po), the bioavailability is 33.5%. In addition, in data set [4] (po, ig, dose 3 mg/kg), the MRT last stood at 8.36 h, the half-life was 4.29 h, the total exposure AUC(0-inf) was 6030 ng·h/mL and the AUC(0-t) stood at 5840 ng·h/mL. Moreover, in data set [4] (iv, dose 0.5 mg/kg), the MRT last was 5.48 h, the half-life was 4.55 h, the AUC(0-inf) came out at 3000 ng·h/mL and the AUC(0-t) was 2930 ng·h/mL.

As to `Cc1cc(-n2nc3c(c2-n2ccn(-c4ccc5c(c4)N(C)C(=O)C54CC4)c2=O)[C@H](C)N(C(=O)c2cc4cc(C5CCOC(C)(C)C5)ccc4n2[C@@]2(c4noc(=O)[nH]4)C[C@@H]2C)CC3)cc(C)c1F` (single isomer, unassigned) [Compound 5], in data set [1], the “AUC0-180 min Glu reduction (%)” value is given as 83%. The “HLM Remaining (T = 60 min)” value in data set [2] is on record as 98.60%. In addition, the “MLM Remaining (T = 60 min)” value in data set [3] came to 94.32%. Besides, the EC50 at GLP1R is below 0.5 nM. In addition, in data set [4] (po), the bioavailability is 35.2%. Besides, in data set [4] (po, ig, dose 3 mg/kg), the MRT last is 7.8 h, the half-life was 4.27 h, the AUC(0-inf) turned out to be 4780 ng·h/mL and the AUC(0-t) was found to be 4640 ng·h/mL. In data set [4] (iv, dose 0.5 mg/kg), the MRT last was 5.16 h, the half-life was 4.6 h, the AUC(0-inf) was 2260 ng·h/mL and the AUC(0-t) is 2220 ng·h/mL.

Consider `[2H]C([2H])([2H])N1C(=O)C2(CC2)c2cc(-n3ccn(-c4c5c(nn4-c4cc(C)c(F)c(C)c4)CCN(C(=O)c4cc6cc([C@H]7CCOC(C)(C)C7)ccc6n4[C@@]4(c6noc(=O)[nH]6)C[C@@H]4C)[C@H]5C)c3=O)ccc21` [Compound 2], for which the “HLM Remaining (T = 60 min)” value in data set [2] is on record as 88.76%. Besides, the “MLM Remaining (T = 60 min)” value in data set [3] stood at 88.89%. For the same compound, on GLP1R, the EC50 is below 0.5 nM. Moreover, the bioavailability in data set [4] (po) came out at 43.9%. In addition, in data set [4] (po, ig, dose 3 mg/kg), the MRT last turned out to be 7.73 h, the half-life was 3.53 h, the AUC(0-inf) came to 4880 ng·h/mL and the AUC(0-t) is 4790 ng·h/mL. In addition, in data set [4] (iv, dose 0.5 mg/kg), the MRT last amounted to 5.13 h, the half-life was 4.1 h, the AUC(0-inf) turned out to be 1850 ng·h/mL and the AUC(0-t) came to 1820 ng·h/mL.

As for `Cc1cc(-n2nc3c(c2-n2ccn(-c4ccc5c(c4)C4(CC4)C(=O)N5C4CC4)c2=O)[C@H](C)N(C(=O)c2cc4cc([C@H]5CCOC(C)(C)C5)ccc4n2[C@@]2(c4noc(=O)[nH]4)C[C@@H]2C)CC3)cc(C)c1F` [Compound 3], the “HLM Remaining (T = 60 min)” value in data set [2] is recorded as 80.83%. Moreover, in data set [3], the “MLM Remaining (T = 60 min)” value is 90.13%. Also, the EC50 on GLP1R is below 0.5 nM. The bioavailability in data set [4] (po) turned out to be 33.7%. Further, in data set [4] (po, ig, dose 3 mg/kg), the MRT last was determined as 8.42 h, the half-life was 4.15 h, the AUC(0-inf) is 4960 ng·h/mL and the AUC(0-t) was determined as 4800 ng·h/mL. For the same compound, in data set [4] (iv, dose 0.5 mg/kg), the MRT last stood at 6.13 h, the half-life is 5.73 h, the AUC(0-inf) is 2450 ng·h/mL and the AUC(0-t) was found to be 2360 ng·h/mL.
